{
  "source": "patent US20120005765A1",
  "about": "“ANIMAL MODEL FOR PARKINSON'S DISEASE” (Saint Louis University, priority 2010, published 2012)",
  "key": {"[1]": {"target": "α-synuclein (Homo sapiens, UniProt P37840)", "assay": "DOPAL-triggered α-synuclein aggregation in test tube, Western blot", "format": "biochemical", "conditions": "AS 2 μM, 37° C., up to 4 h, DOPAL 1.5-1,500 μM", "description": "Determination of DOPAL-triggered α-synuclein aggregation in vitro. Western blot of DOPAL-triggered AS aggregation in test tube experiments. DOPAL was dissolved in 1% benzyl alcohol, then diluted to a final concentration of 1.5-1,500 μM as described previously. AS (2 μM) was incubated at 37° C. in 20 μl of 100 mM tris-HCl buffer (pH 7.2) with or without DA, DOPAL, DOPAC, or homovanillic acid (HVA) for up to 4 h. The reaction was stopped by heating at 70° C. for 3 min in SDS buffer. The entire mixture was transferred to the appropriate gel (vide infra).\nSDS-PAGE and immunoblotting. Ten micrograms of protein (estimated by Bio Rad protein reagent) was resolved by electrophoresis on 4-12% bis-tris gels run with MES SDS buffer, and 3-8% tris-acetate gels using tris-acetate running buffer. For immunoblotting, the protein was transferred to PVDF blotting membranes with […] pore size, blocked with 5% milk protein in tris buffered saline (TBS) containing 0.1% Tween 20, and incubated for 1 h with a AS 202 monoclonal antibody (1:2,500 dilution). Blots were washed five times with 5% milk protein in TBS and probed with horseradish peroxidase-conjugated anti-mouse secondary antibody (1:2,500). Blots were washed five times with TBS containing. 0.5% Tween 20 before detection with Super Signal (Pierce).\nWestern blot analysis was performed to analyze DOPAL-induced aggregation of α-synuclein (FIG. 1). […]"}, "[2]": {"tested_on": "Substantia Nigra Neurons", "assay": "Unbiased stereology of substantia nigra neurons after DOPAL injection", "format": "in vivo", "parameters": "TOTAL SNpc Neurons / TOTAL SNr Neurons / TH SNpc Neurons: dose or concentration left out as unconfirmed", "description": "Neuropathological Evaluation: Stereology The SN was included in 8-10 sections of all cases counted, and its total length was approximately 1.25 mm. Mean volume of the SNpc of control rats was […], while that of the SNpr was 777,696,500 m^3. Mean volume of the SNpc in the DOPAL injected rats was 264,674,833 m^3 while that of the SNpr was 760,212,500 m^3. There was no significant difference in mean volumes of SNpc or SNpr between controls and DOPAL injected rats. The inventors first counted TH immunoreactive neurons in the SNpc on the side of the DOPAL injection and compared them to those on the non-injected side. […] However, the inventors noted that numerous SNpc neurons sometimes were not stained for TH despite robust labeling of others (FIG. 3F). Thus, the inventors compared the number of Nissl stained profiles in sections immunostained with a-syn rather than TH in the SNpc's ipsilateral to the DOPAL injections to those of control rats which had received injections of a buffered saline solution into their SN's (Table 3). […] The inventors then determined whether DOPAL was toxic to neurons in the subjacent pars reticulata of the SN. The number of neurons in the SNpr of the DOPAL-injected rats was not different from the saline-injected rats (Table 3; FIG. 4C).\nThe effect of DOPAL injections into the substantia nigra on neurons in either the pars compacta (SNpc) or the pars reticularis (SNpr) are shown. Control animals were injected with buffered saline while experimental animals were injected with DOPAL (4 mg/800 nl). Unbiased stereology was used to assess the number of neurons (see Methods). Means (SD); n.s.=not significant."}, "[3]": {"tested_on": "rats", "assay": "Rotational asymmetry after apomorphine", "format": "in vivo, rat", "conditions": "apomorphine 0.4 mg/kg, n=6, p, 0.05 vs control rats", "description": "Determination of DOPAL-induced Parkinson's disease-like behavior Injections of DOPAL or ALDH1A1 antisense oligo into rat SN. To determine if increased levels of DOPAL in SN produces a behavioral model of PD, 3 groups of rats were tested: unilateral SN injection of 4 μg DOPAL in 6 rats; unilateral SN injection of 0.56 μg antisense oligonucleotide (oligo) targeted to aldehyde dehydrogenase (ALDH1A1) mRNA, the DOPAL catabolic enzyme in 3 rats; 5 non-injected rats. After 5-7 weeks, rats were injected with apomorphine (0.4 mg/kg, subcutaneously) and rotational asymmetry determined in each group just prior to sacrifice. After the brains were fixed and sectioned, the SN, and forebrain were stained immunohistochemically for tyrosine hydroxylase immunoreactivity (THir). See Section 3.\nDetermination of rotational asymmetry. Rats first were injected subcutaneously with the dopamine agonist apomorphine (0.4 mg/kg) dissolved in 0.1 ascorbate saline solution. After waiting 5 min in their home cage, they were placed in a hemispheric rotation bowl 40 cm wide and 20 cm deep. Rotational behavior was then determined for 30 min and the number of ipsilateral and contralateral turns quantified by observation.\nRotational asymmetry was assessed to quantify the effect of unilateral depletions of striatal dopamine from disruptions of nigrostriatal circuitry. The rotational asymmetry behavior of rats (n=6) changed dramatically after injections with DOPAL (FIG. 5).\nBehavioral asymmetry is considered the standard behavioral test for rodent models of Parkinson's disease. The column on the right is a summary of all the behaviors recorded in the rotational asymmetry test for all the rats ([…])."}},
  "note": "“Also recorded” adds a separate entry of the source.",
  "data": [
    {"smiles": "O=CCc1ccc(O)c(O)c1", "note": "[DOPAL, 3,4-dihydroxyphenylacetaldehyde]", "values": [
      {"measurement": "aggregation of α-synuclein oligomers in vitro", "setting": "[1]", "value": "triggers dose-dependent aggregation"},
      {"measurement": "TOTAL SNpc Neurons", "setting": "[2]; DOPAL into substantia nigra, Means (SD), control 11926 (1084)", "value": "6879 (422)"},
      {"measurement": "TH SNpc Neurons", "setting": "[2]; DOPAL into substantia nigra, Means (SD), control 11969 (3699)", "value": "5884 (1365)"},
      {"measurement": "TOTAL SNr Neurons", "setting": "[2]; DOPAL into substantia nigra, Means (SD), control 12422 (832)", "value": "11761 (715)"},
      {"measurement": "number of Nissl-stained neurons in the SNpc, less than saline-injected rats", "setting": "[2]; p=0.001", "value": 43, "unit": "%"},
      {"measurement": "mean number of TH immunoreactive SNpc neurons ipsilateral, less than contralateral non-injected side", "setting": "[2]; p=0.032", "value": 50, "unit": "%"},
      {"measurement": "number of neurons in the SNpr vs saline-injected rats", "setting": "[2]; rat, in vivo", "value": "not different"},
      {"measurement": "rotational asymmetry after unilateral DOPAL injection into SN", "setting": "[3]", "value": "significantly preferred turning towards the side of the injection; also recorded: turning significantly towards the side of DOPAL injections"}
    ]}
  ]
}
